Here are results for 36 compounds from ChEMBL document CHEMBL5604063, “ASAP - DENV-2 NS2B-NS3 protease fluorescence dose response” (2024).

In assay [1] the target is T1, Genome polyprotein (dengue virus type 2, UniProt P29990). It counts as functional, Thailand/16681/1984.
Assay [2] addresses T1, Genome polyprotein. It counts as functional, Thailand/16681/1984. The source holds these as a separate data set.

For orientation: IC50 means the concentration needed to halve the response being measured. Read a high IC50 as weaker potency in that assay.

T1 sequence (P29990 1346-1475 limits assumed): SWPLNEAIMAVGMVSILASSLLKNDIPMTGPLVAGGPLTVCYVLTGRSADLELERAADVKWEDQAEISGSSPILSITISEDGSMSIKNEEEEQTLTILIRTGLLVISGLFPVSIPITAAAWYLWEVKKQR
T1 sequence (P29990 1476-2093 limits assumed): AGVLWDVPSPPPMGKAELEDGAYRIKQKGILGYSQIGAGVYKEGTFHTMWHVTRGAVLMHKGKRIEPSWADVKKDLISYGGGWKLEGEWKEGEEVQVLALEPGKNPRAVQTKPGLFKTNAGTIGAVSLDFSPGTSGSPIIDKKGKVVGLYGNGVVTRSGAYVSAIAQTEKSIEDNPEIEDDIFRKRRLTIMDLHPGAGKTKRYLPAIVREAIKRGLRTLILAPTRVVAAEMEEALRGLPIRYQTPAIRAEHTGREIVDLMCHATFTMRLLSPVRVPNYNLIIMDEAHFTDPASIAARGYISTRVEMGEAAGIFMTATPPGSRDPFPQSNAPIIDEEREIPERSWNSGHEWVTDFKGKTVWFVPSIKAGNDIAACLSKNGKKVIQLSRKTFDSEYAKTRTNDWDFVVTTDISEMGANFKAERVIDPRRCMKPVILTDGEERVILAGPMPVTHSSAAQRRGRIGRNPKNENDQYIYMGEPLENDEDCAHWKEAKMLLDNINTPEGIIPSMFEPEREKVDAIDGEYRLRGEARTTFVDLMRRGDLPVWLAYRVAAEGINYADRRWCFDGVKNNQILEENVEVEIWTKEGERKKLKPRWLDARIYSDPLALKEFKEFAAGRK

Take `Cn1nc(C(=O)Nc2ccc3c(c2)CNC3)c2cc(Br)ccc21`: the IC50 against Genome polyprotein [1] was 89.7 µM; against Genome polyprotein [2], above 100 µM.

With `O=C(Nc1ccc2c(c1)CNC2)c1cc(C(F)(F)F)cc2[nH]ccc12`, the IC50 at Genome polyprotein [1] is above 99.5 µM; against Genome polyprotein [2], above 100 µM.

In the case of `CNC(=O)[C@H](Nc1ccc2c(c1)CNC2)c1cc(Cl)cc2[nH]ncc12`, the IC50 against Genome polyprotein [1] was above 99.5 µM; at Genome polyprotein [2], above 100 µM.

For `NCc1cc(NC(=O)c2cc(Cl)cc(NC(=O)OCc3ccccc3)c2)cc(C2=CC[C@H](C(=O)O)C2)c1`, the IC50 at Genome polyprotein [1] is above 99.5 µM; against Genome polyprotein [2] it was above 100 µM.

On to `O=C(Nc1ccc2c(c1)CCCN2)c1cc(Cl)cc2[nH]ncc12`, for which the values for the concentration for half-maximal inhibition (IC50) at Genome polyprotein [1] and against Genome polyprotein [2] were above 99.5 µM and above 100 µM, respectively.

For the compound `O=C(O)c1nccn2ncc(Cc3c[nH]c4ccc(Cl)cc34)c12`, the IC50 was above 99.5 µM against Genome polyprotein [1] and above 100 µM against Genome polyprotein [2].

`O=C(Nc1ccc2c(c1)CNC2)c1cc(=O)[nH]c2c(F)cccc12`: the concentration for half-maximal inhibition (IC50) is above 99.5 µM against Genome polyprotein [1] and above 100 µM against Genome polyprotein [2].

Regarding `NCc1cccc([C@@H]2[C@H](C(=O)O)[C@H]2c2cc(N)cc(Cl)c2)c1`, the IC50 against Genome polyprotein [1] was above 99.5 µM; against Genome polyprotein [2], above 100 µM.

For the compound `O=C(Nc1ccc2c(c1)[C@H]1CC[C@H]2N1)c1cc(Cl)cc2[nH]ncc12`, the IC50 on Genome polyprotein [1] is above 99.5 µM; at Genome polyprotein [2], above 100 µM.

For the compound `O=C(NCc1ccc2c(c1)CNC2)c1cc(Cl)cc2[nH]ncc12`, the results for the IC50 against Genome polyprotein [1] and against Genome polyprotein [2] were above 99.5 µM and above 100 µM, respectively.

`O=C(Nc1ccc2c(c1)CCNCC2)c1cc(Cl)cc2[nH]ncc12`: the IC50 against Genome polyprotein [1] is 47.5 µM; against Genome polyprotein [2] it was above 100 µM.

On to `O=C(NCC1CCNCC1)c1cc(Cl)cc2[nH]ncc12`, for which the IC50 against Genome polyprotein [1] is above 99.5 µM; on Genome polyprotein [2], above 100 µM.

Take `O=C(Nc1ccc2c(c1)CNC2)c1cc(Br)cc2[nH]ncc12`: the IC50 is above 99.5 µM at Genome polyprotein [1] and above 100 µM on Genome polyprotein [2].

In the case of `COC(=O)c1ccc2[nH]cc(Cc3ccc(-c4nnn[nH]4)cc3)c2c1`, the figures for the IC50 against Genome polyprotein [1] and at Genome polyprotein [2] were above 99.5 µM and 72.4 µM, respectively.

Regarding `O=C(c1cc(Cl)cc2[nH]ncc12)N1CCC(C2CCNCC2)CC1`, the results for the IC50 at Genome polyprotein [1] and on Genome polyprotein [2] were above 99.5 µM and above 100 µM, respectively.

As to `O=C1NCc2ccc(NC(=O)c3cc(Cl)cc4[nH]ncc34)cc21`, the IC50 is above 99.5 µM against Genome polyprotein [1] and above 100 µM at Genome polyprotein [2].

As for `O=C(Nc1ccc2c(n1)CNC2)c1cc(Cl)cc2[nH]ncc12`, the IC50 was above 99.5 µM on Genome polyprotein [1] and above 100 µM against Genome polyprotein [2].

`Cc1ccc(NC(=O)c2cc(Cl)cc3[nH]ncc23)cc1CN`: the IC50 was above 99.5 µM against Genome polyprotein [1] and above 100 µM against Genome polyprotein [2].

`Cc1ccc(NC(=O)c2cc(Cl)cc3[nH]ncc23)cc1N`: the IC50 against Genome polyprotein [1] was above 99.5 µM; at Genome polyprotein [2], above 100 µM.

As for `NC[C@H]1CC[C@H](NC(=O)c2cc(Cl)cc3[nH]ncc23)CC1`, the IC50 on Genome polyprotein [1] was above 99.5 µM; against Genome polyprotein [2], above 100 µM.

On to `CNC(=O)[C@]1(Nc2ccc3c(c2)CNC3)CCc2ccc(Cl)cc21`, for which the IC50 was above 99.5 µM on Genome polyprotein [1] and above 100 µM against Genome polyprotein [2].

Take `O=C(Nc1ccc2c(c1)CN(C(=O)C(F)(F)F)C2)c1cc(Cl)cc2[nH]ncc12`: the figures for the IC50 on Genome polyprotein [1] and against Genome polyprotein [2] were above 99.5 µM and above 100 µM, respectively.

`Nc1nccc(C(=O)Nc2ccc3c(c2)CNC3)n1`: the IC50 at Genome polyprotein [1] was above 99.5 µM; at Genome polyprotein [2] it was above 100 µM.

As to `O=C(Nc1cc(Cl)cc(-c2cc(C(=O)O)n(-c3ccc(F)cc3)n2)c1)OCc1ccccc1`, the IC50 came out at 17.5 µM on Genome polyprotein [1] and 10.6 µM on Genome polyprotein [2].

With `N[C@H]1CCCc2ccc(NC(=O)c3cc(Cl)cc4[nH]ncc34)cc21`, the IC50 against Genome polyprotein [1] is above 99.5 µM; against Genome polyprotein [2], above 100 µM.

Consider `N[C@H]1Cc2ccc(NC(=O)c3cc(Cl)cc4[nH]ncc34)cc2C1`, for which the IC50 against Genome polyprotein [1] was above 99.5 µM; against Genome polyprotein [2], above 100 µM.

Turning to `CNCc1cccc(NC(=O)c2cc(Cl)cc3[nH]ncc23)c1`, the IC50 was 73.3 µM at Genome polyprotein [1] and above 100 µM on Genome polyprotein [2].

Regarding `Cc1ncc(Br)cc1C(=O)Nc1ccc2c(c1)CNC2`, the IC50 is above 99.5 µM against Genome polyprotein [1] and above 100 µM against Genome polyprotein [2].

As to `CN1C(=O)[C@H](c2cc(Cl)cc(NC(=O)OCc3ccccc3)c2)N(c2cccc(-c3nn[nH]n3)c2)C1=O`, the IC50 against Genome polyprotein [1] came out at 21.8 µM; on Genome polyprotein [2], 19 µM.

On to `CCNCc1ccc(NC(=O)c2cc(Cl)cc3[nH]ncc23)cc1`, for which the IC50 on Genome polyprotein [1] is above 99.5 µM; at Genome polyprotein [2], above 100 µM.

For the compound `Cc1c(C(=O)Nc2cc(C#N)c3ccccc3n2)cc(C2CC2)n1C`, the IC50 against Genome polyprotein [1] was above 99.5 µM; on Genome polyprotein [2], above 100 µM.

As to `N#Cc1cc(C(=O)Nc2ccc3c(c2)CNC3)cc(C(F)(F)F)c1`, the IC50 at Genome polyprotein [1] was above 99.5 µM; against Genome polyprotein [2], above 100 µM.

In the case of `CCc1nccn1CC(=O)Nc1ccc2c(c1)CNC2`, the IC50 against Genome polyprotein [1] is above 99.5 µM; on Genome polyprotein [2] it was above 100 µM.

Regarding `O=C(CSc1cccc(Br)c1)Nc1ccc2c(c1)CNC2`, the results for the IC50 against Genome polyprotein [1] and at Genome polyprotein [2] were above 99.5 µM and above 100 µM, respectively.

For the compound `NC(=O)c1[nH]c2ccc(Br)cc2c1Cc1ccc(-c2nnn[nH]2)cc1`, the results for the IC50 against Genome polyprotein [1] and at Genome polyprotein [2] were 54.7 µM and 26.8 µM, respectively.

With `Cc1oc(C2CC2)nc1C(=O)Nc1cc(CCCN)ccn1`, the results for the IC50 on Genome polyprotein [1] and on Genome polyprotein [2] were above 99.5 µM and above 100 µM, respectively.
